Source: patent US20250144067A1, “PERSONALIZED STARVATION THERAPY FOR CANCER” (Faeth Therapeutics, Inc., priority 2021, published 2025)
Structures can show the parent of a compound that is named as a salt.

Assays:
H292 cells [1] = assay: Drug validation, four media conditions; type: cell-based, human; conditions: cholesterol-free medium+simvastatin compared to the other media conditions
Procedure: (§1) A series of experiments were designed to assess the effect of cholesterol depletion and statin treatment on the anti-cancer effect of drugs identified in the FDA drug screens. Cancer cells were grown in media containing cholesterol and cholesterol-free media in the presence or absence of simvastatin. The effect of the drug identified in the FDA drug screens on cancer cell growth was measured.
(§2) […]. Medium 1 was ‘complete medium’ containing all essential nutrients, including cholesterol. Medium 2 was cholesterol-free medium. Medium 3 was cholesterol-free medium supplemented with simvastatin 40 nM. Medium 4 was ‘complete medium’ containing all essential nutrients, including cholesterol, supplemented with simvastatin at the IC30 concentration for each cell line.
(§3) On Day 5, cell growth was measured by absorbance or fluorescence. For absorbance growth measurements, spent media was discarded, and wells were stained with a crystal violet staining solution, washed, and dried. 100 μL of 10% acetic acid was added to each well to release the crystal violet taken up by the cells. Plates were read using a Biotek Powerwave plate reader to determine the absorbance of the crystal violet released as an indicator of cell growth at a wavelength of 595 nm. For fluorescence growth measurements, 100 μL of a resazurin solution was added to each well and the plate incubated at 37° C. for four hours. Plates were read using a Biotek Powerwave plate reader to determine the fluorescence of reosurfin as an indicator of cell growth at a wavelength of 590 nm.
(§4) Growth curves showing absorbance of crystal violet at 595 nm or fluorescene of reosurfin at 590 nm were plotted from test wells against the logarithmic concentration of the validation drug. FIG. 9A-9C show growth of cancer cell lines in the four media conditions subjected to increasing doses of neticonazole. FIG. 10A-10D show growth of cancer cell lines in the four media conditions subjected to increasing doses of cepharanthine. FIG. 11A-11B show growth of cancer cell lines in the four media conditions subjected to increasing doses of alverine citrate. FIG. 12A-12B show growth of cancer cell lines in the four media conditions subjected to increasing doses of berbamine. FIG. 13A-13C show growth of cancer cell lines in the four media conditions subjected to increasing doses of pitolisant. FIG. 14A-14G show growth of cancer cell lines in the four media conditions subjected to increasing doses of avapritinib. FIG. 15A-15D show growth of cancer cell lines in the four media conditions subjected to increasing doses of toremifene. FIG. 16A-16C show growth of cancer cell lines in the four media conditions subjected to increasing doses of isavuconazole.

SW480 cells = assay: Drug validation, four media conditions; type: cell-based, human
Procedure: as §1, §2, §3, §4

SW480 colorectal tumour = assay: Anti-tumour activity with low cholesterol diet in SW480 tumour bearing mice; type: in vivo, M-NSG mice
Description: (§5) A series of in vivo experiments were designed to assess the effect of cholesterol depletion on cancer cell growth. The added role of statin treatment and additional therapeutic agents was studied by dosing mice and assessing tumor growth over a defined time period.
Immunodeficient M-NSG (NOD-Prkdc^scid Il2rgem1Smoc) mice were subcutaneously injected with human colorectal cancer SW480 cells and matrigel to initiate tumor development and randomly assigned into one of four experimental groups (n=6 per group): normal cholesterol diet “Normal Chol Diet” containing 0.2% dietary cholesterol and vehicle, low cholesterol diet “Low Chol Diet” containing less than 0.05% dietary cholesterol and vehicle, Low Chol Diet treated with atorvastatin at 15 mg/kg, or Low Chol Diet treated with toremifene at 2 mg/kg. Once the tumor volume reached ˜150 mm^3, experimental diets were commenced. Atorvastatin, vehicle, or toremifene treatment by oral gavage was initiated four days after the diet change and continued daily until the tumor volume exceeded 2000 mm^3 or the time end-point of three weeks after treatment initiation was reached. Throughout the course of the study, tumor volume was measured twice per week.

[2] = tested on: NCI-H292 lung cancer cells; assay: FDA drug screening, complete media vs cholesterol-free media without statin (TABLE 1); type: cell-based, human; conditions: for Difference: about 0 neutral
[3] = tested on: NCI-H292 mucoepidermoid lung cancer tumour; assay: Anti-tumour activity with low cholesterol diet in NCI-H292 tumour bearing mice; type: in vivo, BALB/c nude mice; conditions: Low Chol Diet + atorvastatin 30 mg/kg daily oral gavage vs Low Chol Diet + vehicle
Description: as §5
Immunodeficient BALB/c nude mice were subcutaneously injected with human mucoepidermoid lung cancer NCI-H292 cells to initiate tumor development and randomly assigned into one of three experimental groups (n=6 per group): normal cholesterol diet “Normal Chol Diet” containing 0.2% dietary cholesterol without atorvastatin; low cholesterol diet “Low Chol Diet” containing less than 0.05% dietary cholesterol without atorvastatin; or Low Chol Diet treated with atorvastatin at 30 mg/kg by oral gavage. Once the tumor volume reached ˜150 mm^3, experimental diets were commenced. Atorvastatin or vehicle treatment was initiated four days after the diet change and continued daily until the tumor volume exceeded 2000 mm^3 or the time end-point of three weeks after diet commencement was reached. Throughout the course of the study, tumor volume was measured twice per week.

[4] = tested on: NCI-H292 lung cancer cells; assay: FDA drug screening, complete media vs cholesterol-free media with simvastatin (TABLE 2); type: cell-based, human; conditions: for Cholesterol-free media + simvastatin (0.04 μM) / Complete Media: NCI-H292 cells, FDA drug library screen; for Cholesterol-free media + simvastatin (0.04 μM): cholesterol-free media with simvastatin 0.04 μM; for Difference: complete media minus cholesterol-free media + simvastatin, >0 enhanced anti-cancer activity, about 0 neutral, <0 antagonist
PATU8901 cells = assay: Drug validation, four media conditions; type: cell-based, human; conditions: cholesterol-free media with simvastatin
Procedure: as §1, §2, §3, §4

PSN1 cells = assay: Drug validation, four media conditions; type: cell-based, human; conditions: for anti-proliferative effect (dose-response curve shift): cholesterol-free medium+simvastatin compared to the other media conditions
Procedure: as §1, §2, §3, §4

cancer cell lines = assay: Drug validation in multiple cancer cell lines, four media conditions; type: cell-based, human
Procedure: as §1
[…]. Medium 1 was ‘complete medium’ containing all essential nutrients, including cholesterol. Medium 2 was cholesterol-free medium. Medium 3 was cholesterol-free medium supplemented with simvastatin 40 nM. […]
as §3, with “and dried. […] Plates were” for “and dried. 100 μL of 10% acetic acid was added to each well to release the crystal violet taken up by the cells. Plates were”, “590 nm. […]” for “590 nm.”

H292 cells [5] = assay: Drug validation in H292 cells, three media conditions; type: cell-based, human; conditions: cholesterol-free medium + simvastatin 40 nM vs complete and cholesterol-free medium
Procedure: as §1
On Day 1, cells were seeded at a density of around 7500 cells/well in a Corning 96-well flat bottom culture plate in complete media containing 10% FBS.
On Day 5, spent media was discarded, and wells were stained with a crystal violet staining solution, washed and dried. 100 μL of 10% acetic acid was added to each well to release the crystal violet taken up by the cells. Plates were read using a Biotek Powerwave plate reader to determine the absorbance of the crystal violet released as an indicator of cell growth at a wavelength of 595 nm.
Growth curves showing absorbance of crystal violet at 595 nm were plotted from test wells against the logarithmic concentration of the validation drug. FIG. 7A-7C show growth of cancer cell lines in the three media conditions subjected to increasing doses of isavuconazole (FIG. 7A), pitolisant (FIG. 7B), or toremifene (FIG. 7C) from the FDA screen under validation. For each of the drugs being validated, there is a strong ‘left-shift’ in the dose response curve for cells are grown in the cholesterol-free medium+simvastatin.

PC9 cells = assay: Drug validation, four media conditions; type: cell-based, human; conditions: cholesterol-free medium+simvastatin compared to the other media conditions
Procedure: as §1, §2, §3, §4

HCC827 cells = assay: Drug validation, four media conditions; type: cell-based, human; conditions: cholesterol-free and cholesterol-free+simvastatin media conditions
Procedure: as §1, §2, §3, §4

PC9 lung cancer tumors = assay: Anti-tumour activity with low cholesterol diet in PC9 bearing mice; type: in vivo, C.B-17 SCID mice; conditions: Low Chol Diet + toremifene 2 mg/kg with simvastatin 10 mg/kg, daily oral gavage, compared to simvastatin 20 mg/kg
Description: as §5
Immunodeficient C.B-17 SCID (C.B-Igh-1^b/IcrTac-Prkdc^scid) mice were subcutaneously injected with human lung cancer PC9 cells to initiate tumor development and randomly assigned into one of three experimental groups (n=6 per group): “Low Chol Diet” containing less than 0.05% dietary cholesterol and vehicle, Low Chol Diet and simvastatin 20 mg/kg, and Low Chol Diet and simvastatin 10 mg/kg in combination with toremifene 2 mg/kg. Once the tumor volume reached ˜200 mm^3, treatment was commenced with vehicle, simvastatin, and toremifene administered daily by oral gavage. Treatment continued for 28 days or until the tumor volume exceeded 2000 mm^3. Throughout the course of the study, tumor volume was measured twice per week.

[6] = cholesterol-free and cholesterol-free+simvastatin media conditions

CCN(CCCc1ccccc1)CCCc1ccccc1 [alverine citrate] was tested. Which “anti-proliferative effect (dose-response curve shift)” value (H292 cells [1]) did it give?
The value was “enhanced”.

And the “anti-proliferative effect (dose-response curve shift)” value (SW480 cells; cholesterol-free medium+simvastatin compared to the other media conditions)?
The value was “enhanced”.

How did the tumor growth suppression (SW480 colorectal tumour; Low Chol Diet + atorvastatin 15 mg/kg daily oral gavage vs Low Chol Diet + vehicle) turn out when CC(C)c1c(C(=O)Nc2ccccc2)c(-c2ccccc2)c(-c2ccc(F)cc2)n1CC[C@@H](O)C[C@@H](O)CC(=O)O [atorvastatin, reference compound] was run?
The tumor growth suppression was “enhanced”.

And the Difference ([2]; Complete minus Cholesterol-free, >0 enhanced anti-cancer activity, <0 antagonist)?
The Difference was 0.03.

And the Cholesterol-free ([2]; NCI-H292 cells, cholesterol-free media without statin, FDA drug library screen)?
The Cholesterol-free was 0.8356.

What about the Complete ([2]; NCI-H292 cells, complete media, FDA drug library screen) of the same compound?
Its Complete is 0.8623.

What about the tumor growth suppression [3] of the same compound?
Its tumor growth suppression is “enhanced the tumor growth suppression”.

And the “Cholesterol-free media + simvastatin (0.04 μM)” value ([4]; listed as Atorvastatin)?
The value was 0.6169.

And the “Complete Media” value ([4]; listed as Atorvastatin)?
Its value is 0.8658.

And the Difference ([4]; listed as Atorvastatin)?
Its Difference is 0.25.

With Cn1cc(-c2cc3c(N4CCN(c5ncc([C@@](C)(N)c6ccc(F)cc6)cn5)CC4)ncnn3c2)cn1 [avapritinib, reference compound] as the compound, how does the “anti-proliferative effect (dose-response curve shift)” value (PATU8901 cells) read?
The value was “strong left-shift”.

What about the “anti-proliferative effect (dose-response curve shift)” value (H292 cells [1]) of the same compound?
The value was “strong left-shift”.

And the “anti-proliferative effect (dose-response curve shift)” value (PSN1 cells)?
Its value is “strong left-shift”.

What about the “anti-proliferative effect (dose-response curve shift) with lack of cholesterol” value (cancer cell lines; cholesterol-free media compared to complete media) of the same compound?
Its value is “enhanced”.

And the Cholesterol-free ([2]; NCI-H292 cells, cholesterol-free media without statin)?
The Cholesterol-free was 0.9337.

What about the Complete ([2]; NCI-H292 cells, complete media) of the same compound?
Its Complete is 0.6002.

And the Difference ([2]; complete vs cholesterol-free media, greater than 0 enhanced anti-cancer activity, below 0 antagonists)?
The Difference was −0.33.

And the “Cholesterol-free media + simvastatin (0.04 μM)” value [4]?
The value was 0.4436.

What about the “Complete Media” value [4] of the same compound?
Its value is 0.749.

And the Difference [4]?
The Difference was 0.31.

C[C@@H](c1nc(-c2ccc(C#N)cc2)cs1)[C@](O)(Cn1cncn1)c1cc(F)ccc1F [isavuconazole, reference compound] was tested. Which “anti-proliferative effect of the drug (dose response curve shift)” value (H292 cells [5]) did it give?
The value was “strongly enhanced”.

And the “anti-proliferative effect (dose-response curve shift)” value (H292 cells [1])?
The value was “strong left-shift”.

What about the “basal viability of treated cells” value (PSN1 cells; cholesterol-free medium+simvastatin relative to the other three media conditions) of the same compound?
Its value is “decreased basal viability”.

What about the “anti-proliferative effect (dose-response curve shift)” value (PC9 cells) of the same compound?
The value was “strong left-shift”.

What about the Difference ([2]; Complete minus Cholesterol-free, greater than 0 enhanced anti-cancer activity, below 0 antagonists) of the same compound?
The Difference was −0.83.

What about the Cholesterol-free ([2]; NCI-H292 cells in cholesterol-free media without statin) of the same compound?
Its Cholesterol-free is 1.746.

And the Complete ([2]; NCI-H292 cells in complete media)?
Its Complete is 0.9126.

What about the “Cholesterol-free media + simvastatin (0.04 μM)” value [4] of the same compound?
The value was 0.5246.

What about the “Complete Media” value [4] of the same compound?
Its value is 0.9256.

And the Difference [4]?
The Difference was 0.40.

Which “anti-proliferative effect (dose-response curve shift)” value (H292 cells [1]) does the source give for CCCCCOc1ccccc1/C(=C\SC)n1ccnc1 [neticonazole, reference compound] here?
The value was “strongly enhanced”.

And the “anti-proliferative effect (dose-response curve shift)” value (PSN1 cells)?
Its value is “strongly enhanced”.

What about the “anti-proliferative effect (dose-response curve shift)” value (PC9 cells) of the same compound?
Its value is “strongly enhanced”.

And the Difference ([2]; Complete minus Cholesterol-free, greater than 0 enhanced anti-cancer activity, below 0 antagonist)?
The Difference was −0.16.

What about the Cholesterol-free ([2]; NCI-H292 cells, FDA drug library screen, cholesterol-free media without statin) of the same compound?
The Cholesterol-free was 0.9493.

And the Complete ([2]; NCI-H292 cells, FDA drug library screen, complete media)?
The Complete was 0.7904.

What about the “Complete Media” value ([4]; listed as Neticonazole) of the same compound?
The value was 1.262.

And the Difference ([4]; listed as Neticonazole)?
The Difference was 0.90.

What does the source list for Clc1ccc(CCCOCCCN2CCCCC2)cc1 [pitolisant]?
anti-proliferative effect of the drug (dose response curve shift) (H292 cells [5]): strongly enhanced; activity (dose-response curve shift) with lack of cholesterol (PSN1 cells; [6]): enhanced; activity (dose-response curve shift) with lack of cholesterol (SW480 cells; [6]): enhanced; activity (dose-response curve shift) with lack of cholesterol (HCC827 cells): enhanced

Which results are given for CN(C)CCOc1ccc(/C(=C(/CCCl)c2ccccc2)c2ccccc2)cc1 [toremifene]?
tumor growth suppression (PC9 lung cancer tumors): enhanced the tumor growth suppression; anti-proliferative effect of the drug (dose response curve shift) (H292 cells [5]): strongly enhanced; anti-proliferative activity (dose-response curve shift) (cancer cell lines; cholesterol-free+simvastatin medium compared to the other three media conditions): strong left-shift; tumor growth suppression, rank among the four conditions (SW480 colorectal tumour; Low Chol Diet + toremifene 2 mg/kg): highest; tumor growth suppression (SW480 colorectal tumour; Low Chol Diet + toremifene 2 mg/kg daily oral gavage vs Low Chol Diet + vehicle): enhanced
